Measurements: paper PMC6274495, “Purification and Characterization of a White Laccase with Pronounced Dye Decolorizing Ability and HIV-1 Reverse Transcriptase Inhibitory Activity from Lepista nuda” (Molecules, 2016)
Counter-ions that a name gives are not always drawn.

Tested on: T1, L. nuda laccase
T1 construct: gene EC 1.10.3.2; native, purified from culture broth (fraction SU3); 56 kDa monomer; white laccase
Assay: spectrophotometric oxidation, Lineweaver-Burk plot
Format: biochemical, Collybia nuda
Settings: HAc-NaAc buffer pH 4.6, 25 °C

Km: 190 µM
Structure (SMILES): CCn1c(=NN=c2sc3cc(S(=O)(=O)O)ccc3n2CC)sc2cc(S(=O)(=O)O)ccc21 [ABTS, 2,7-azinobis(3-ethylbenzothia-zolone-6-sulfonic acid) diammonium salt]
